Patent publication US20080319024A1, “Rosiglitazone Phosphate and Polymorphic Forms” (priority 2004, published 2008)

How the values were obtained:
[1] = Exposure of Form A to different relative humidities, water content by Karl Fischer; assay type: physicochemical
Experimental: The water content is determined by the Karl Fischer method.
5-[[4-[2-(methyl-2-pyridinylamino)ethoxy]phenyl]methyl]-2,4-thiazolidinedione phosphate hydrate in its polymorphic Form A was exposed to different relative humidities for about 24 hours.

[2] = Stress test at 80° C. in a closed vial, degradation determined by HPLC; assay type: physicochemical
[3] = comparator rosiglitazone maleate

SMILES: CN(CCOc1ccc(CC2SC(=O)NC2=O)cc1)c1ccccn1.O=P(O)(O)O (stereo not shown) [Form A, 5-[[4-[2-(methyl-2-pyridinylamino)ethoxy]phenyl]methyl]-2,4-thiazolidinedione phosphate]
- Water content (Karl Fisher) ([1]; 45% relative humidity, about 24 hours): 3.42 % w/w
- Water content (Karl Fisher) ([1]; 63% relative humidity, about 24 hours): 3.37 % w/w
- Water content (Karl Fisher) ([1]; 86% relative humidity, about 24 hours): 3.58 % w/w
- Water content (Karl Fisher) ([1]; Initial, before exposure to humidity): 2.8 % w/w
- Stability (general statement) [2]: good stability
- Degradation after stress test as determined by HPLC ([2]; 80° C., about 160 hours, closed vial): no degradation

SMILES: CN(CCOc1ccc(CC2SC(=O)NC2=O)cc1)c1ccccn1.O=P(O)(O)O (stereo not shown) [Form E, 5-[[4-[2-(methyl-2-pyridinylamino)ethoxy]phenyl]methyl]-2,4-thiazolidinedione phosphate]
- Solubility in water compared to rosiglitazone maleate [3]: comparable or even more expressed
